Article PMC10999543, “Identification of kinase modulators as host-directed therapeutics against intracellular methicillin-resistant Staphylococcus aureus” (Frontiers in Cellular and Infection Microbiology, 2024)
Like-named read-outs stand apart in the source and are kept apart here.

Experiments:
HeLa cells = assay: Compound screen by flow cytometry: HeLa cell count as surrogate readout of cell viability (z-scoreHeLa); assay type: cell-based, human
How it was run: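 The viability surrogate was the count of fixed HeLa cells by flow cytometry, converted to z-scores against DMSO controls with values deviating two-fold excluded. Before counting, cells had been infected with MRSA for 1 h and cleared of extracellular bacteria with gentamicin. They were then exposed overnight to kinase inhibitors in triplicate.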

intracellular MRSA = assay type: cell-based, Staphylococcus aureus; details: for %GFP+ rep 1 / z-scoreMRSA+ rep 1: replicate 1; for %GFP+ rep 2 / z-scoreMRSA+ rep 2: replicate 2; for %GFP+ rep 3 / z-scoreMRSA+ rep 3: replicate 3; for z-scoreMRSA+ mean: mean of 3 replicates
How it was run: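 HeLa cells were infected with GFP-expressing MRSA (mean MOI 6.8) for 1 h, treated with 30 µg/ml gentamicin for 15 min, then incubated overnight at 37°C with kinase inhibitors and 5 µg/ml gentamicin. Flow cytometry gave % GFP-positive cells, with cell count as viability. Hits were z-score ≤ -2 (infection) and ≥ -3 (count) versus DMSO.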

[1] = PKIS compound screen raw data, MRSA-infected HeLa cells
[2] = Yes/No: effect without cell death
[3] = compound screen, MRSA-infected HeLa cells
[4] = PKIS compound screen, Yes/No call
[5] = PKIS compound screen, mean of 3 replicates
[6] = PKIS compound screen, replicate 1
[7] = PKIS compound screen, replicate 2
[8] = PKIS compound screen, replicate 3
[9] = PKIS compounds raw data, replicate 1, HeLa cell count
[10] = PKIS compounds raw data, replicate 2, HeLa cell count
[11] = PKIS compounds raw data, replicate 3, HeLa cell count
[12] = PKIS compound screen, Yes/No call (effect without cell death)
[13] = PKIS compounds raw data, MRSA-infected HeLa cells
[14] = PKIS compound screen raw data, HeLa cell count, replicate 1
[15] = PKIS compound screen raw data, HeLa cell count, replicate 2
[16] = PKIS compound screen raw data, HeLa cell count, replicate 3
[17] = PKIS compound screen, HeLa cell count, mean of 3 replicates
[18] = PKIS compound screen, HeLa cell count, replicate 1
[19] = PKIS compound screen, HeLa cell count, replicate 2
[20] = PKIS compound screen, HeLa cell count, replicate 3
[21] = PKIS compound screen, Yes/No call on z-scoreHeLa
[22] = PKIS compound screen, MRSA-infected HeLa cells
[23] = PKIS compound screen, Yes/No call on z-scoreMRSA+
[24] = compound screen, HeLa cell count, mean of 3 replicates
[25] = compound screen, HeLa cell count, replicate 1
[26] = compound screen, HeLa cell count, replicate 2
[27] = compound screen, HeLa cell count, replicate 3

Structure (SMILES)	%GFP+ rep 1 (intracellular MRSA; [1])	%GFP+ rep 2 (intracellular MRSA; [1])	%GFP+ rep 3 (intracellular MRSA; [1])	effect (intracellular MRSA; Yes/No call from z-scoreMRSA+)	hit (intracellular MRSA; [2])	z-scoreMRSA+ mean (intracellular MRSA; [3])	z-scoreMRSA+ rep 1 (intracellular MRSA; [3])	z-scoreMRSA+ rep 2 (intracellular MRSA; [3])	z-scoreMRSA+ rep 3 (intracellular MRSA; [3])	cell count rep 1 (HeLa cells; [9])	cell count rep 2 (HeLa cells; [10])	cell count rep 3 (HeLa cells; [11])	hit (intracellular MRSA; [12])	%GFP+ rep 1 (intracellular MRSA; [13])	%GFP+ rep 2 (intracellular MRSA; [13])	%GFP+ rep 3 (intracellular MRSA; [13])	cell count rep 1 (HeLa cells; [14])	cell count rep 2 (HeLa cells; [15])	cell count rep 3 (HeLa cells; [16])	cell death (HeLa cells; Yes/No call from z-scoreHeLa)	also measured
O=C1Nc2ccc(I)cc2C1=Cc1cc(Br)c(O)c(Br)c1 [GW305074X]	19.6%	17.6%	21.1%	No	No	-0.96	-1.32	-1.22	-0.33												cell death (HeLa cells): No; cell count rep 1 (HeLa cells; human): 1595; cell count rep 2 (HeLa cells; human): 1814; cell count rep 3 (HeLa cells; human): 1196; z-scoreHeLa mean (HeLa cells; human): -2.15; z-scoreHeLa rep 1 (HeLa cells; human): -1.99; z-scoreHeLa rep 2 (HeLa cells; human): -1.91; z-scoreHeLa rep 3 (HeLa cells; human): -2.55
COC(=O)c1ccc2c(c1)C(=Cc1cc(Br)c(O)c(Br)c1)C(=O)N2 [GW405841X]										5478	7140	10804	No	13.2%	13.6%	14.0%					cell death (HeLa cells; [4]): No; z-scoreHeLa mean (HeLa cells; [5]): 1.55; z-scoreHeLa rep 1 (HeLa cells; [6]): 0.63; z-scoreHeLa rep 2 (HeLa cells; [7]): 2.17; z-scoreHeLa rep 3 (HeLa cells; [8]): 1.84; effect (intracellular MRSA; [4]): No; z-scoreMRSA+ mean (intracellular MRSA; PKIS compound screen): -0.17; z-scoreMRSA+ rep 1 (intracellular MRSA; PKIS compound screen): 0.00934; z-scoreMRSA+ rep 2 (intracellular MRSA; PKIS compound screen): 0.0349; z-scoreMRSA+ rep 3 (intracellular MRSA; PKIS compound screen): -0.56
O=C1Nc2ccc(C(=O)c3ccco3)cc2C1=Cc1cc(Cl)c(O)c(Cl)c1 [GW406108X]	19.1%	21.6%	22.3%										No				28408	39603	51964		z-scoreHeLa mean (HeLa cells; [17]): 1.33; z-scoreHeLa rep 1 (HeLa cells; [18]): 1.26; z-scoreHeLa rep 2 (HeLa cells; [19]): 0.90; z-scoreHeLa rep 3 (HeLa cells; [20]): 1.82; cell death (HeLa cells; [21]): No; z-scoreMRSA+ mean (intracellular MRSA; [22]): 0.69; z-scoreMRSA+ rep 1 (intracellular MRSA; [22]): 0.39; z-scoreMRSA+ rep 2 (intracellular MRSA; [22]): 0.93; z-scoreMRSA+ rep 3 (intracellular MRSA; [22]): 0.76; effect (intracellular MRSA; [23]): No
Nc1nc(-c2ccc3c(c2)C(=Cc2cc(Br)c(O)c(Br)c2)C(=O)N3)cs1 [GW407323A]				No	No	0.14	1.03	0.0015	-0.62	5658	5858	9419		16.4%	13.5%	13.8%				No	z-scoreHeLa mean (HeLa cells; [24]): 1.06; z-scoreHeLa rep 1 (HeLa cells; [25]): 0.80; z-scoreHeLa rep 2 (HeLa cells; [26]): 1.20; z-scoreHeLa rep 3 (HeLa cells; [27]): 1.18
Cc1cc(-c2ccc3c(c2)CC[C@@H](N[C@@H](C)c2ccccc2)C3)cnc1N [GW412617A]	20.0%	21.4%	20.6%										No				42421	41709	47670		z-scoreHeLa mean (HeLa cells; [17]): 1.94; z-scoreHeLa rep 1 (HeLa cells; [18]): 3.38; z-scoreHeLa rep 2 (HeLa cells; [19]): 1.29; z-scoreHeLa rep 3 (HeLa cells; [20]): 1.14; cell death (HeLa cells; [21]): No; z-scoreMRSA+ mean (intracellular MRSA; [22]): 0.60; z-scoreMRSA+ rep 1 (intracellular MRSA; [22]): 0.68; z-scoreMRSA+ rep 2 (intracellular MRSA; [22]): 0.86; z-scoreMRSA+ rep 3 (intracellular MRSA; [22]): 0.25; effect (intracellular MRSA; [23]): No
O=C1Nc2ccc(-c3cccnc3)cc2C1=Cc1cc(Br)c(O)c(Br)c1 [GW429374A]	14.3%	14.7%	15.6%										No				24917	38643	50434		z-scoreHeLa mean (HeLa cells; [17]): 1.01; z-scoreHeLa rep 1 (HeLa cells; [18]): 0.73; z-scoreHeLa rep 2 (HeLa cells; [19]): 0.72; z-scoreHeLa rep 3 (HeLa cells; [20]): 1.58; cell death (HeLa cells; [21]): No; z-scoreMRSA+ mean (intracellular MRSA; [22]): -1.18; z-scoreMRSA+ rep 1 (intracellular MRSA; [22]): -1.13; z-scoreMRSA+ rep 2 (intracellular MRSA; [22]): -1.15; z-scoreMRSA+ rep 3 (intracellular MRSA; [22]): -1.27; effect (intracellular MRSA; [23]): No
Cc1cc(O)cc(C)c1/C=C/c1cncc(C(N)=O)c1 [GW435821X]	14.7%	15.8%	16.5%										No				9030	26110	32002		z-scoreHeLa mean (HeLa cells; [17]): -1.55; z-scoreHeLa rep 1 (HeLa cells; [18]): -1.68; z-scoreHeLa rep 2 (HeLa cells; [19]): -1.62; z-scoreHeLa rep 3 (HeLa cells; [20]): -1.36; cell death (HeLa cells; [21]): No; z-scoreMRSA+ mean (intracellular MRSA; [22]): -0.94; z-scoreMRSA+ rep 1 (intracellular MRSA; [22]): -1.00; z-scoreMRSA+ rep 2 (intracellular MRSA; [22]): -0.82; z-scoreMRSA+ rep 3 (intracellular MRSA; [22]): -1.00; effect (intracellular MRSA; [23]): No
c1ccc(-c2ccc3c(Nc4ccc5[nH]ccc5c4)ccnc3c2)nc1 [GW440138A]										7521	7813	7928	No	35.0%	36.6%	38.8%					cell death (HeLa cells; [4]): No; z-scoreHeLa mean (HeLa cells; [5]): 1.19; z-scoreHeLa rep 1 (HeLa cells; [6]): 0.89; z-scoreHeLa rep 2 (HeLa cells; [7]): 1.20; z-scoreHeLa rep 3 (HeLa cells; [8]): 1.48; effect (intracellular MRSA; [4]): No; z-scoreMRSA+ mean (intracellular MRSA; PKIS compound screen): 1.90; z-scoreMRSA+ rep 1 (intracellular MRSA; PKIS compound screen): 1.55; z-scoreMRSA+ rep 2 (intracellular MRSA; PKIS compound screen): 2.03; z-scoreMRSA+ rep 3 (intracellular MRSA; PKIS compound screen): 2.14
Cc1ccc(C(=O)Nc2ccc(Nc3ccnc4cc(-c5ccccn5)ccc34)cc2O)cc1 [GW440146A]	19.0%	18.0%	19.2%	No	No	-1.16	-1.46	-1.12	-0.90								4799	4726	6030	No	z-scoreHeLa mean (HeLa cells; [24]): 0.38; z-scoreHeLa rep 1 (HeLa cells; [25]): 0.32; z-scoreHeLa rep 2 (HeLa cells; [26]): 0.33; z-scoreHeLa rep 3 (HeLa cells; [27]): 0.50
Cn1cc(C=C2C(=O)Nc3cccnc32)c2ccccc21 [GW441756X]										4844	4695	10080	No	12.3%	12.1%	11.5%					cell death (HeLa cells; [4]): No; z-scoreHeLa mean (HeLa cells; [5]): 0.63; z-scoreHeLa rep 1 (HeLa cells; [6]): 0.06; z-scoreHeLa rep 2 (HeLa cells; [7]): 0.32; z-scoreHeLa rep 3 (HeLa cells; [8]): 1.49; effect (intracellular MRSA; [4]): No; z-scoreMRSA+ mean (intracellular MRSA; PKIS compound screen): -0.68; z-scoreMRSA+ rep 1 (intracellular MRSA; PKIS compound screen): -0.28; z-scoreMRSA+ rep 2 (intracellular MRSA; PKIS compound screen): -0.47; z-scoreMRSA+ rep 3 (intracellular MRSA; PKIS compound screen): -1.30
COc1ccccc1-c1cc(/C=C2\C(=O)Nc3ncc(Br)cc32)cc(Br)c1O [GW442130X]				No	No	0.33	0.55	0.97	-0.53	3648	4731	6669		14.9%	16.4%	14.1%				No	z-scoreHeLa mean (HeLa cells; [24]): -0.27; z-scoreHeLa rep 1 (HeLa cells; [25]): -1.02; z-scoreHeLa rep 2 (HeLa cells; [26]): 0.35; z-scoreHeLa rep 3 (HeLa cells; [27]): -0.14
CS(=O)(=O)CCNCc1nc(-c2ccc3ncnc(Nc4ccc(F)c(Cl)c4)c3c2)cs1 [GW461104A]	24.3%	20.7%	21.4%	No	No	-0.31	-0.23	-0.46	-0.24								1413	957	819	No	z-scoreHeLa mean (HeLa cells; [24]): -2.50; z-scoreHeLa rep 1 (HeLa cells; [25]): -2.12; z-scoreHeLa rep 2 (HeLa cells; [26]): -2.57; z-scoreHeLa rep 3 (HeLa cells; [27]): -2.79
Cc1c(O)cccc1Nc1ccnc2ccc(C(F)(F)F)cc12 [GW466413A]	22.3%	22.8%	19.9%	No	No	-0.45	-0.69	0.0454	-0.69								3244	2982	4313	No	z-scoreHeLa mean (HeLa cells; [24]): -0.80; z-scoreHeLa rep 1 (HeLa cells; [25]): -0.80; z-scoreHeLa rep 2 (HeLa cells; [26]): -1.02; z-scoreHeLa rep 3 (HeLa cells; [27]): -0.58
